Assay results reported in the NIST ThermoML archive (doi:10.1016/j.fluid.2012.05.002).
Numbers after ± are expanded uncertainties.

Assay: osmotic coefficient (dimensionless); mn = molality of the nth substance listed, in mol/kg
Conditions: 298.1 K, 20 kPa, Liquid, isopiestic method

Work on `O=C(O)C(O)C(O)C(=O)O` (centres undefined) [2,3-dihydroxybutanedioic acid] + O yielded an osmotic coefficient (m1 = 0.3554) of 0.461 ± 0.023, an osmotic coefficient (m1 = 0.51) of 0.382 ± 0.024 and an osmotic coefficient (m1 = 0.698) of 0.313 ± 0.027. It also gave an osmotic coefficient (m1 = 1.074) of 0.286 ± 0.028, an osmotic coefficient (m1 = 1.268) of 0.285 ± 0.028 and an osmotic coefficient (m1 = 1.739) of 0.283 ± 0.028. For the same compound, the osmotic coefficient (m1 = 2.361) was 0.292 ± 0.03, the osmotic coefficient (m1 = 2.404) was 0.292 ± 0.027 and the osmotic coefficient (m1 = 3.449) was 0.322 ± 0.028. It also gave an osmotic coefficient (m1 = 4.311) of 0.351 ± 0.025, an osmotic coefficient (m1 = 5.203) of 0.379 ± 0.024 and an osmotic coefficient (m1 = 6.517) of 0.416 ± 0.023. For the same compound, the osmotic coefficient (m1 = 7.737) was 0.437 ± 0.022.
Work on `CC(=O)O` [acetic acid] + O yielded an osmotic coefficient (m1 = 0.3254) of 1.034 ± 0.0034, an osmotic coefficient (m1 = 0.4489) of 1.014 ± 0.003 and an osmotic coefficient (m1 = 0.6191) of 0.991 ± 0.013. It also gave an osmotic coefficient (m1 = 0.7688) of 0.9736 ± 0.0014, an osmotic coefficient (m1 = 1.029) of 0.9465 ± 0.0043 and an osmotic coefficient (m1 = 1.262) of 0.925 ± 0.0036. It also gave an osmotic coefficient (m1 = 1.638) of 0.8942 ± 0.0068, an osmotic coefficient (m1 = 2.236) of 0.852 ± 0.015 and an osmotic coefficient (m1 = 2.588) of 0.8295 ± 0.0074. For the same compound, the osmotic coefficient (m1 = 3.693) was 0.768 ± 0.009, the osmotic coefficient (m1 = 4.687) was 0.72 ± 0.011 and the osmotic coefficient (m1 = 6.292) was 0.652 ± 0.014. The osmotic coefficient (m1 = 9.635) was 0.535 ± 0.018 and the osmotic coefficient (m1 = 14.92) was 0.375 ± 0.03.
`CCCC(=O)O` [butanoic acid] + O gave an osmotic coefficient (m1 = 0.2966) of 1.051 ± 0.0094, an osmotic coefficient (m1 = 0.3972) of 1.03 ± 0.012 and an osmotic coefficient (m1 = 0.7027) of 0.9809 ± 0.0023. The osmotic coefficient (m1 = 0.9898) was 0.9364 ± 0.0052, the osmotic coefficient (m1 = 1.539) was 0.8612 ± 0.0079 and the osmotic coefficient (m1 = 2.501) was 0.755 ± 0.011. It also gave an osmotic coefficient (m1 = 2.652) of 0.74 ± 0.011, an osmotic coefficient (m1 = 4.544) of 0.598 ± 0.016 and an osmotic coefficient (m1 = 5.353) of 0.553 ± 0.018. The osmotic coefficient (m1 = 6.364) was 0.506 ± 0.019, the osmotic coefficient (m1 = 7.777) was 0.454 ± 0.023 and the osmotic coefficient (m1 = 9.598) was 0.402 ± 0.023. It also gave an osmotic coefficient (m1 = 12) of 0.351 ± 0.026, an osmotic coefficient (m1 = 15.29) of 0.302 ± 0.027 and an osmotic coefficient (m1 = 17.6) of 0.278 ± 0.028.
With `O=C(O)CC(O)(CC(=O)O)C(=O)O` [citric acid] + O the osmotic coefficient (m1 = 0.2947) was 1.058 ± 0.006, the osmotic coefficient (m1 = 0.3878) was 1.058 ± 0.0043 and the osmotic coefficient (m1 = 0.6515) was 1.058 ± 0.0041. The osmotic coefficient (m1 = 0.8686) was 1.067 ± 0.0061, the osmotic coefficient (m1 = 1.039) was 1.073 ± 0.0037 and the osmotic coefficient (m1 = 1.225) was 1.082 ± 0.004. It also gave an osmotic coefficient (m1 = 1.753) of 1.12 ± 0.01, an osmotic coefficient (m1 = 2.327) of 1.17 ± 0.014 and an osmotic coefficient (m1 = 2.699) of 1.194 ± 0.0075. For the same compound, the osmotic coefficient (m1 = 3.133) was 1.23 ± 0.0089, the osmotic coefficient (m1 = 3.816) was 1.288 ± 0.011 and the osmotic coefficient (m1 = 4.436) was 1.34 ± 0.014. It also gave an osmotic coefficient (m1 = 5.134) of 1.4 ± 0.016, an osmotic coefficient (m1 = 5.522) of 1.44 ± 0.017 and an osmotic coefficient (m1 = 5.987) of 1.47 ± 0.02. The osmotic coefficient (m1 = 6.701) was 1.52 ± 0.02, the osmotic coefficient (m1 = 7.6) was 1.58 ± 0.022 and the osmotic coefficient (m1 = 8.205) was 1.62 ± 0.026.
For `O=CO` [formic acid] + O, the osmotic coefficient (m1 = 0.3334) was 1.047 ± 0.0031, the osmotic coefficient (m1 = 0.6596) was 1.078 ± 0.0039 and the osmotic coefficient (m1 = 0.7817) was 1.089 ± 0.0046. It also gave an osmotic coefficient (m1 = 0.9947) of 1.109 ± 0.0045, an osmotic coefficient (m1 = 1.248) of 1.133 ± 0.011 and an osmotic coefficient (m1 = 1.439) of 1.151 ± 0.01. It also gave an osmotic coefficient (m1 = 1.688) of 1.173 ± 0.0071, an osmotic coefficient (m1 = 2.27) of 1.226 ± 0.0098 and an osmotic coefficient (m1 = 2.667) of 1.26 ± 0.01. It also gave an osmotic coefficient (m1 = 2.913) of 1.28 ± 0.017, an osmotic coefficient (m1 = 3.395) of 1.322 ± 0.013 and an osmotic coefficient (m1 = 3.782) of 1.35 ± 0.014. It also gave an osmotic coefficient (m1 = 4.446) of 1.41 ± 0.021, an osmotic coefficient (m1 = 4.836) of 1.44 ± 0.018 and an osmotic coefficient (m1 = 5.352) of 1.48 ± 0.018. The osmotic coefficient (m1 = 5.619) was 1.49 ± 0.019.
`O=C(O)CC(O)C(=O)O` (centres undefined) [hydroxybutanedioic acid] + O gave an osmotic coefficient (m1 = 0.1223) of 1.343 ± 0.013, an osmotic coefficient (m1 = 0.2625) of 0.828 ± 0.0078 and an osmotic coefficient (m1 = 0.3917) of 0.426 ± 0.024. The osmotic coefficient (m1 = 0.5398) was 0.351 ± 0.026, the osmotic coefficient (m1 = 0.8231) was 0.441 ± 0.022 and the osmotic coefficient (m1 = 0.9977) was 0.506 ± 0.019. It also gave an osmotic coefficient (m1 = 1.245) of 0.528 ± 0.018, an osmotic coefficient (m1 = 1.848) of 0.531 ± 0.02 and an osmotic coefficient (m1 = 2.634) of 0.54 ± 0.018. It also gave an osmotic coefficient (m1 = 3.207) of 0.554 ± 0.017, an osmotic coefficient (m1 = 3.996) of 0.566 ± 0.017 and an osmotic coefficient (m1 = 5.166) of 0.584 ± 0.017. For the same compound, the osmotic coefficient (m1 = 6.325) was 0.613 ± 0.017 and the osmotic coefficient (m1 = 7.352) was 0.626 ± 0.015.
Compound `O=C(O)CC(=O)O` [propanedioic acid] + O has an osmotic coefficient (m1 = 0.1216) of 1.144 ± 0.0083, an osmotic coefficient (m1 = 0.3009) of 0.456 ± 0.022 and an osmotic coefficient (m1 = 0.5079) of 0.268 ± 0.029. It also gave an osmotic coefficient (m1 = 0.6604) of 0.274 ± 0.028, an osmotic coefficient (m1 = 0.7994) of 0.314 ± 0.027 and an osmotic coefficient (m1 = 1.01) of 0.354 ± 0.025. It also gave an osmotic coefficient (m1 = 1.08) of 0.362 ± 0.026, an osmotic coefficient (m1 = 1.631) of 0.373 ± 0.024 and an osmotic coefficient (m1 = 2.392) of 0.401 ± 0.023. It also gave an osmotic coefficient (m1 = 3.127) of 0.436 ± 0.022, an osmotic coefficient (m1 = 4.097) of 0.455 ± 0.021 and an osmotic coefficient (m1 = 5.12) of 0.469 ± 0.021. The osmotic coefficient (m1 = 6.369) was 0.498 ± 0.019 and the osmotic coefficient (m1 = 9.545) was 0.525 ± 0.022.
Work on `CCC(=O)O` [propanoic acid] + O yielded an osmotic coefficient (m1 = 0.3425) of 1.054 ± 0.0037, an osmotic coefficient (m1 = 0.4819) of 1.036 ± 0.0046 and an osmotic coefficient (m1 = 0.6261) of 1.018 ± 0.0035. For the same compound, the osmotic coefficient (m1 = 0.8086) was 0.9963 ± 0.0012, the osmotic coefficient (m1 = 1.054) was 0.9683 ± 0.0028 and the osmotic coefficient (m1 = 1.294) was 0.942 ± 0.013. The osmotic coefficient (m1 = 1.796) was 0.892 ± 0.013, the osmotic coefficient (m1 = 2.261) was 0.851 ± 0.015 and the osmotic coefficient (m1 = 2.918) was 0.7984 ± 0.0078. For the same compound, the osmotic coefficient (m1 = 4.125) was 0.718 ± 0.011, the osmotic coefficient (m1 = 5.45) was 0.647 ± 0.014 and the osmotic coefficient (m1 = 7.948) was 0.549 ± 0.018. The osmotic coefficient (m1 = 8.132) was 0.542 ± 0.018, the osmotic coefficient (m1 = 10.51) was 0.478 ± 0.02 and the osmotic coefficient (m1 = 12.4) was 0.438 ± 0.023.
